From US20240382557A1, “INHIBITION OF TUMOR NECROSIS FACTOR, PRO-INFLAMMATORY CYTOKINES AND OTHER INFLAMMATORY RESPONSE MEDIATORS” (Allegro Pharmaceuticals, LLC, priority 2021, published 2024) come the findings set out here.

Data set [1] concerns Human umbilical vein endothelial cells (HUVEC). Briefly: RNA-seq gene expression in HUVEC treated with hypoxia and cytokines. It counts as cell-based. The text has this: Purpose: A chronic pro-inflammatory condition is associated with many ocular diseases, including DED, AMD, and DR. During this process, tissue resident and peripheral immune cells are activated and contribute to formation of a cytotoxic inflammatory state that causes tissue damage and vision loss. In this study, RNA-seq was used to unbiasedly identify the genes regulated by risuteganib treatment in human endothelial cells exposed to hypoxia and cytokines. Analysis of the specific subset of genes regulated by risuteganib enables identification of biological processes and pathways modulated by the oligopeptide.
Methods: Human umbilical vein endothelial cells (HUVEC) were used between passage 3 to 5. All cells were grown at 3% O2 to stimulate endothelial cells into a more angiogenic state. Cells were divided into four treatment groups: control, cytokines for 48 hours, 500 uM risuteganib for 24 hours, and cytokines for 48 hours with 500 uM risuteganib for 24 hours. Cytokine treatment contains both human TNF-a and IL-1b at 1 ng/ml at final concentration. After exposure, cells were collected and their total RNA isolated for RNA-seq. The generated reads were then aligned to human reference genome/transcriptome and gene expression quantified for differential expression analysis and fold change calculation. The list of regulated genes was then used to identify biological processes and pathways that are regulated after risuteganib exposure with cytokine exposure.

A short description of data set [2]: Intravenous infusion to dogs, toxicity. It counts as in vivo. The conditions noted are these: 1.0 mg/kg, 5.0 mg/kg and 8.0 mg/kg. As for the experimental part: The peptides disclosed herein may be administered at any effective dosages, as a single dose or multiple doses, and by any suitable routes of administration. For some systemic treatments, administration by injection or intravenous infusion may be preferable. […] Accordingly, in at least some applications, risuteganib may be administered, for example, by intravenous infusion at a dosage ranging from 1 mg/kg to 8 mg/kg. Other dosage levels and other routes of administration may also be suitable and effective.

Where [3] appears, read: 3% O2, 500 uM risuteganib for 24 hours.

Where a SMILES comes first, the peptide text is derived from it. [ ]: non-standard residue; d: D form. Cya = N[C@@H](CS(=O)(=O)O)C(=O)O

Take `C[C@@H](O)[C@H](NC(=O)[C@H](CS(=O)(=O)O)NC(=O)CNC(=O)[C@H](CCCNC(=N)N)NC(=O)CN)C(=O)N1CCC[C@H]1C(=O)O` [Risuteganib, Glycyl-L-arginylglycyl-3-sulfo-L-alanyl-L-threonyl-L-proline] (H-GRG[Cya]TP-OH): in data set [1] (setting [3]), the “CCL2 Mean Expression Rate (Normalized as Fraction Control)” value turned out to be 0.8696, the “CCL20 Mean Expression Rate (Normalized as Fraction Control)” value turned out to be 0.6328, the “CFH Mean Expression Rate (Normalized as Fraction Control)” value is 0.9706 and the “CXCL5 Mean Expression Rate (Normalized as Fraction Control)” value amounted to 1.166. Also, in data set [1] (setting [3]), the “CXCL6 Mean Expression Rate (Normalized as Fraction Control)” value came to 0.9699, the “IL6 Mean Expression Rate (Normalized as Fraction Control)” value was 0.9982, the “IL7R Mean Expression Rate (Normalized as Fraction Control)” value was 1.036 and the “SELE Mean Expression Rate (Normalized as Fraction Control)” value came to 0.7022. Moreover, in data set [1] (setting [3]), the “TNFAIP3 Mean Expression Rate (Normalized as Fraction Control)” value was determined as 0.946, the “TNFAIP6 Mean Expression Rate (Normalized as Fraction Control)” value came to 0 and the “TNFRSF11B Mean Expression Rate (Normalized as Fraction Control)” value is on record as 0.8931. Also, in data set [1] (342/403 genes), the “genes regulated by both risuteganib and cytokines that are regulated in opposite directions” value is reported as 85%. The “reversing the transcriptome changes associated with cytokine treatment (Pearson's r)” value in data set [1] (cytokine-activated condition) is on record as −0.267. Also, the “number of pathways down-regulated by risuteganib (pathway analysis)” value in data set [1] (incl. cytokine-cytokine receptor interaction, TNF signaling, IL-17 signaling) was 10. Besides, the “toxicity or side effects” value in data set [2] is on record as “without significant toxicity or side effects”.
